Experimental data published in ChEMBL document CHEMBL1146814, “Amidine derived 1,3-diazabuta-1,3-dienes as potential antibacterial and antifungal agents” (2004).
The source made the active and inactive calls. No cut-off for these calls is given here.

How the values were obtained:
Escherichia coli [1] = assay: Antibacterial activity against Escherichia coli MTCC 42 measured through zone of inhibition; Inactive; type: functional, organism-based
Pseudomonas aeruginosa [2] = assay: Antibacterial activity against Pseudomonas aeruginosa MTCC 1034. measured through zone of inhibition; Inactive; type: functional, organism-based
Aspergillus niger [3] = assay: Antifungal activity against Aspergillus niger MTCC 404 measured through zone of inhibition; Inactive; type: functional, organism-based
Bacillus cereus [4] = assay: Antibacterial activity against Bacillus cereus MTCC 1272 measured through zone of inhibition; Inactive; type: functional, organism-based
Staphylococcus aureus [5] = assay: Antibacterial activity against Staphylococcus aureus MTCC 1430 measured through zone of inhibition; Inactive; type: functional, organism-based
Candida albicans [6] = assay: Antifungal activity against Candida albicans MTCC 183 measured through zone of inhibition; Inactive; type: functional, organism-based
Bacillus subtilis [7] = assay: Antibacterial activity against Bacillus subtilis MTCC 121 measured through zone of inhibition; Inactive; type: functional, organism-based
Escherichia coli [8] = assay: Antibacterial activity against Escherichia coli MTCC 42 measured through zone of inhibition; 21-25 mm; type: functional
Pseudomonas aeruginosa [9] = assay: Antibacterial activity against Pseudomonas aeruginosa MTCC 1034. measured through zone of inhibition; 16-20 mm; type: functional
Staphylococcus aureus [10] = assay: Antibacterial activity against Staphylococcus aureus MTCC 1430 measured through zone of inhibition; 21-25 mm; type: functional
Bacillus subtilis [11] = assay: Antibacterial activity against Bacillus subtilis MTCC 121 measured through zone of inhibition; 21-25 mm; type: functional
Bacillus cereus [12] = assay: Antibacterial activity against Bacillus cereus MTCC 1272 measured through zone of inhibition; 16-20 mm; type: functional
Bacillus cereus [13] = assay: Antibacterial activity against Bacillus cereus MTCC 1272 measured through zone of inhibition; 21-25 mm; type: functional
Candida albicans [14] = assay: Antifungal activity against Candida albicans MTCC 183 measured through zone of inhibition; 11-15 mm; type: functional
Bacillus subtilis [15] = assay: Antibacterial activity against Bacillus subtilis MTCC 121 measured through zone of inhibition; 16-20 mm; type: functional
Aspergillus niger [16] = assay: Antifungal activity against Aspergillus niger MTCC 404 measured through zone of inhibition; inactive; type: functional, organism-based
Candida albicans [17] = assay: Antifungal activity against Candida albicans MTCC 183 measured through zone of inhibition; 16-20 mm; type: functional
Aspergillus niger [18] = assay: Antifungal activity against Aspergillus niger MTCC 404 measured through zone of inhibition; 11-15 mm; type: functional
Pseudomonas aeruginosa [19] = assay: Antibacterial activity against Pseudomonas aeruginosa MTCC 1034. measured through zone of inhibition; 21-25 mm; type: functional
Staphylococcus aureus [20] = assay: Antibacterial activity against Staphylococcus aureus MTCC 1430 measured through zone of inhibition; 16-20 mm; type: functional
Candida albicans [21] = assay: Antifungal activity against Candida albicans MTCC 183 measured through zone of inhibition; inactive; type: functional, organism-based
Bacillus cereus [22] = assay: Antibacterial activity against Bacillus cereus MTCC 1272 measured through zone of inhibition; 11-15 mm; type: functional
Staphylococcus aureus [23] = assay: Antibacterial activity against Staphylococcus aureus MTCC 1430 measured through zone of inhibition; 11-15 mm; type: functional

For C[S+](C)[O-], the Zone of inhibition (Escherichia coli [1]) was “inactive”, the Zone of inhibition (Pseudomonas aeruginosa [2]) was “inactive” and the Zone of inhibition (Aspergillus niger [3]) was “inactive”. For the same compound, the Zone of inhibition (Bacillus cereus [4]) was “inactive”, the Zone of inhibition (Staphylococcus aureus [5]) was “inactive” and the Zone of inhibition (Candida albicans [6]) was “inactive”. The Zone of inhibition (Bacillus subtilis [7]) was “inactive”.
O=C(O)c1cn(C2CC2)c2cc(N3CCNCC3)c(F)cc2c1=O [CIPROFLOXACIN] was tested, and the Zone of inhibition (Escherichia coli [8]) was 21 mm, the Zone of inhibition (Pseudomonas aeruginosa [9]) was 16 mm and the Zone of inhibition (Staphylococcus aureus [10]) was 21 mm. It also gave a Zone of inhibition (Bacillus subtilis [11]) of 21 mm and a Zone of inhibition (Bacillus cereus [12]) of 16 mm.
CCS/C(=N\C(=N\c1ccccc1)c1ccccc1)N1CCCCC1 gave a Zone of inhibition (Bacillus cereus [13]) of 21 mm, a Zone of inhibition (Escherichia coli [8]) of 21 mm and a Zone of inhibition (Candida albicans [14]) of 11 mm. It also gave a Zone of inhibition (Pseudomonas aeruginosa [9]) of 16 mm, a Zone of inhibition (Staphylococcus aureus [10]) of 21 mm and a Zone of inhibition (Bacillus subtilis [15]) of 16 mm. The Zone of inhibition (Aspergillus niger [16]) was “inactive”.
CS/C(=N\C(=N\c1ccc(C)cc1)c1ccccc1)N1CCCCC1 was tested, and the Zone of inhibition (Aspergillus niger [3]) was “inactive”, the Zone of inhibition (Escherichia coli [8]) was 21 mm and the Zone of inhibition (Pseudomonas aeruginosa [9]) was 16 mm. For the same compound, the Zone of inhibition (Candida albicans [6]) was “inactive”, the Zone of inhibition (Staphylococcus aureus [10]) was 21 mm and the Zone of inhibition (Bacillus subtilis [15]) was 16 mm. For the same compound, the Zone of inhibition (Bacillus cereus [12]) was 16 mm.
With CCCCS/C(=N\C(=N\c1ccc(C)cc1)c1ccccc1)N1CCCCC1 the Zone of inhibition (Candida albicans [17]) was 16 mm, the Zone of inhibition (Aspergillus niger [18]) was 11 mm and the Zone of inhibition (Pseudomonas aeruginosa [19]) was 21 mm. For the same compound, the Zone of inhibition (Escherichia coli [8]) was 21 mm, the Zone of inhibition (Staphylococcus aureus [10]) was 21 mm and the Zone of inhibition (Bacillus subtilis [15]) was 16 mm. It also gave a Zone of inhibition (Bacillus cereus [12]) of 16 mm.
With CS/C(=N\C(=N\c1ccccc1)c1ccccc1)N1CCCCC1 the Zone of inhibition (Staphylococcus aureus [20]) was 16 mm, the Zone of inhibition (Candida albicans [21]) was “inactive” and the Zone of inhibition (Escherichia coli [8]) was 25 mm. The Zone of inhibition (Pseudomonas aeruginosa [9]) was 16 mm, the Zone of inhibition (Bacillus subtilis [15]) was 16 mm and the Zone of inhibition (Aspergillus niger [16]) was “inactive”. For the same compound, the Zone of inhibition (Bacillus cereus [12]) was 16 mm.
In the case of CS/C(=N\C(=N\c1ccc(Cl)cc1)c1ccccc1)N1CCCCC1, the Zone of inhibition (Aspergillus niger [18]) is reported as 11 mm, the Zone of inhibition (Pseudomonas aeruginosa [19]) is reported as 21 mm and the Zone of inhibition (Bacillus cereus [22]) is reported as 11 mm. The Zone of inhibition (Staphylococcus aureus [20]) was 16 mm, the Zone of inhibition (Escherichia coli [8]) was 21 mm and the Zone of inhibition (Candida albicans [14]) was 11 mm. For the same compound, the Zone of inhibition (Bacillus subtilis [15]) was 16 mm.
Compound CCS/C(=N\C(=N\c1ccc(C)cc1)c1ccccc1)N1CCCCC1 has a Zone of inhibition (Aspergillus niger [18]) of 11 mm, a Zone of inhibition (Staphylococcus aureus [23]) of 11 mm and a Zone of inhibition (Escherichia coli [8]) of 21 mm. The Zone of inhibition (Pseudomonas aeruginosa [9]) was 16 mm, the Zone of inhibition (Candida albicans [6]) was “inactive” and the Zone of inhibition (Bacillus subtilis [11]) was 21 mm. The Zone of inhibition (Bacillus cereus [12]) was 16 mm.
